What was measured:
BgaE = system: T1, BgaE; assay: o-nitrophenol release, A420; type: biochemical, Bifidobacterium longum subsp. longum; conditions: 0.1 M sodium acetate pH 6.5, 40 °C; unit mM, not in table
T1 construct: gene B8809_0611; tetramer
Description: o-nitrophenol release, A420 on BgaE

BgaD = system: T2, BgaD; assay: o-nitrophenol release, A420; type: biochemical, Bifidobacterium longum subsp. longum; conditions: 0.1 M sodium acetate pH 6.5, 40 °C; unit mM, not in table
T2 construct: gene B8809_0415; His6-tagged, expressed in Lactococcus lactis (pNZ8150), Ni-purified; trimer
Description: o-nitrophenol release, A420 on BgaD

- Km (BgaE): 11.1 mM
- Km (BgaD): 17 mM
Compound: O=[N+]([O-])c1ccccc1O[C@@H]1O[C@H](CO)[C@H](O)[C@H](O)[C@H]1O [ONPG]

Reference: PMC8126724, “Infant-Associated Bifidobacterial β-Galactosidases and Their Ability to Synthesize Galacto-Oligosaccharides” (Frontiers in Microbiology, 2021)
